Test results as given in patent US20240349718A1, “COMPOSITION” (priority 2021, published 2024).
Like-named read-outs stand apart in the source and are kept apart here.

Assay: Lewis acidity: reaction rate constant of CoTPP and oxygen in the presence of a Lewis acid
Format: physicochemical
Protocol: Acetonitrile (MeCN) containing cobalt tetraphenylporphyrin (CoTPP), saturated O2, and a substance to be measured for the Lewis acidity (which is, for example, a cation of metal or the like and is represented by M^n+ in the following reaction scheme (A)) in the following reaction scheme (A) is measured for a change in an ultraviolet-visible absorption spectrum at room temperature. From the obtained reaction rate constant (kcat), the ΔE value (eV) as an index of the Lewis acidity can be calculated. […] The Lewis acidity of an organic compound can also be estimated from an energy level of the lowest unoccupied molecular orbital (LUMO) calculated by quantum chemical calculation.
Examples of the reaction rate constant of CoTPP and oxygen in the presence of a Lewis acid, which is an index of the Lewis acidity measured (calculated) by the above measurement method, are shown below. In the following Table 1, numerical values represented by “kcat, M^−2s^−1” are CoTPP and oxygen in the presence of a Lewis acid. The 5 numerical value represented by “LUMO, eV” is an energy level of LUMO.

[1] = CoTPP and oxygen in MeCN, room temperature

## CCCC[N+](CCCC)(CCCC)CCCC.F[P-](F)(F)(F)(F)F [Tetrabutylammonium hexafluorophosphate]
  kcat: >0.1 M^−2s^−1

## Benzalkonium chloride
[1]
  kcat: 0.18 M^−2s^−1

## Benzethonium chloride
[1]
  kcat: 0.24 M^−2s^−1
